Columns and labels:
C57 mice = assay: Toxicity test, 180 consecutive days by gavage in C57 mice; type: in vivo; settings: 100 mg/kg/D for 180 consecutive days by gavage
Description: In this example, the toxicities of compounds 1-19 prepared in example 1 were analyzed.
C57 mice were given compounds 1-19 at a dose of 100 mg/kg/D for 180 consecutive days by gavage. One hour after the last administration of the drug, the mice were anesthetized by intraperitoneal injection of sodium pentobarbital (40 mg/kg), placed on a constant temperature hot plate at 37±1° C., blood was taken by cardiac puncture or pathological sections were made to detect the side effects (gastrointestinal reaction, nervous system toxicity, hematological toxicity, allergic reaction, nephrotoxicity, hepatotoxicity, rash and asthma) The side effects of aspirin, ibuprofen, indomethacin, phenylbutazone, diclofenac, piroxicam and glucocorticoid groups were investigated according to the same administration method as compounds 1-19.

arthritis model = assay: Improvement effect on arthritis, sodium iodoacetate knee joint model in SD rats; type: in vivo; set-up: Pathological tissue score (joint): scale not given here; settings: gavage every day 100 mg/kg/d; 4th week after operation; n = 10
Description: In this example, the improvement effect of compounds 1˜19 prepared in example 1 on arthritic was measured. (1) Animals: SD rats, four rates in one cage, were fed under the conditions of constant temperature (25±2° C.) and illumination control (12 h day/night circulation). The animals were fed with standard feed, and fed for at least 7 days to adapt environment before the experiment. […] (3) SD rats were fasted for 12 hours before operation, and weighed and recorded prior to operation. The blank control group was not treated any more. […] After anesthesia, they were fixed in the supine position. 0.1 ml of 1 g/L sodium iodoacetate solution was injected into the knee joint. From the fifth day, the animals were driven to run for 30 minutes every day, and they were allowed to move freely in the cage the rest of the time. After modeling, indomethacin and compounds 1˜19 were given by gavage every day at the dose of 100 mg/kg/d. The blank control group and the model control group were given equal volume of isotonic saline. At the 4th week after operation, the articular fluid of rats in each group was extracted to measure the content of MMP-13. The rats were killed, and the subchondral bone plate of the inner condyle of the tibia of the right knee was cut and processed into specimens, and pathological scores were made.

mouse hepatitis model = assay: Improvement effect on hepatitis, concanavalin A (ConA) mouse hepatitis model; type: in vivo, Blab/c mice; settings: gavage 50 mg/kg, n = 10
Description: In this example, the improvement effect of compounds 1 19 prepared in example 1 on […] measured. (1) Animals: Adult and Healthy Male Blab/c Mice, 25 30 g. […] The blank control group was injected with equal volume of isotonic saline. After modeling, indomethacin and compounds 1 19 were given by gavage every day at the dose of 50 mg/kg. The blank control group and the model control group were given equal volume of isotonic saline. Eyeball blood and liver tissue were taken at 6 h, 12 h, 24 h and 48 h after administration. The levels of serum alanine aminotransferase (ALT) and aspartate aminotransferase (AST) were measured.

[1] = system: sodium taurocholate-induced pancreatitis model; assay: Improvement effect on pancreatitis, sodium taurocholate-induced model in mice; type: in vivo, Blab/c mice; set-up: Pancreatic histopathological injury score: scale not given here; settings: 17.5 mg/kg caudal vein 1 h, 3 h and 6 h after model construction; after 24 hours; n = 10
From the text: In this example, the improvement effect of compounds 1 19 prepared in example 1 on […] measured. (1) Animals: Adult and Healthy Male Blab/c Mice, 25 30 g. […] A model was made with sodium taurocholate. […] After anesthesia, the surgical site was sterilized with an alcohol cotton ball. The sterile gauze was placed on the surgical site. A laparotomy was made at the width of two fingers under the xiphoid process. After seeing the liver, an incision was made, the cotton swab soaked in normal saline was stretched into the enterocoelia, the duodenum was sought on the back of the liver, turned out and placed on the sterile gauze, the pancreaticobiliary duct and duodenal papilla were sought, and the needle of 1 mL syringe was used to pierce a hole on the along the direction of the nipple, a 24 G indwelling needle tube was inserted into the pancreatic duct along the nipple, and the common bile duct below the liver was closed with an arterial vascular clip, with a dose of 0.1 mL/100 g and 0.1 mL/min inject sodium taurocholate with a concentration of 3.8% at a flow rate. During this process, pay attention to adding saline to the exposed pancreas and duodenum to keep it moist. After the injection, the tube was slowly taken out and the bile duct was continued to be closed. The main tube was removed from the vascular artery clip 3 minutes later, the duodenum was also accommodated, and the abdominal cavity was sutured in double layers. The blank control group was injected with equal volume of isotonic saline. […] The blank control group and the model control group were given equal volume of isotonic saline. After 24 hours, pancreatic tissue and blood samples were taken, and the pancreatic histopathological injury score and the level of pancreatic amylase in serum were evaluated.

Row | SMILES | Occurrence rate of side effects (C57 mice) [%] | MMP-13 content in joint fluid (arthritis model) [mg/L] | Pathological tissue score (joint) (arthritis model) | Aspartate aminotransferase (AST) (mouse hepatitis model; 6 h after administration) [U/L] | Serum alanine aminotransferase (ALT) (mouse hepatitis model; 6 h after administration) [U/L] | Aspartate aminotransferase (AST) (mouse hepatitis model; 12 h after administration) [U/L] | Serum alanine aminotransferase (ALT) (mouse hepatitis model; 12 h after administration) [U/L] | Aspartate aminotransferase (AST) (mouse hepatitis model; 24 h after administration) [U/L] | Serum alanine aminotransferase (ALT) (mouse hepatitis model; 24 h after administration) [U/L] | Aspartate aminotransferase (AST) (mouse hepatitis model; 48 h after administration) [U/L] | Serum alanine aminotransferase (ALT) (mouse hepatitis model; 48 h after administration) [U/L] | Amylopsin (pancreatic amylase level in serum) [1] [KU/L] | Pancreatic histopathological injury score [1]
1 | CC(=O)Oc1ccccc1C(=O)O [Aspirin, aspirin] | 20 |  |  |  |  |  |  |  |  |  |  |  | 
2 | CCCCC1C(=O)N(c2ccccc2)N(c2ccccc2)C1=O [Baotaisong, phenylbutazone] | 20 |  |  |  |  |  |  |  |  |  |  |  | 
3 | CCC(=O)CCn1c(=O)c2c(ncn2C)n(C)c1=O [Compound 16, 1-(2-propionylethyl)-3,7-dimethylxanthine] |  | 93 ± 9 | 0.4 ± 0.3 | 59 ± 7 | 61 ± 8 | 93 ± 11 | 101 ± 16 | 121 ± 12 | 132 ± 12 | 103 ± 9 | 104 ± 13 | 5 ± 2 | 1.8 ± 0.3
4 | CC(C)C(=O)NCCn1c(=O)c2c(ncn2C)n(C)c1=O [Compound 17] |  | 99 ± 6 | 0.5 ± 0.5 | 65 ± 5 | 79 ± 8 | 102 ± 12 | 145 ± 13 | 119 ± 12 | 163 ± 16 | 107 ± 11 | 142 ± 15 | 10 ± 3 | 1.5 ± 0.4
5 | CCCC(=O)CCn1c(=O)c2c(ncn2C)n(C)c1=O [Compound 18, 1-(2-butyrylethyl)-3,7-dimethylxanthine] |  | 91 ± 8 | 0.5 ± 0.3 | 54 ± 7 | 67 ± 8 | 98 ± 8 | 106 ± 11 | 131 ± 8 | 157 ± 15 | 117 ± 9 | 121 ± 13 | 9 ± 2 | 1.3 ± 0.4
6 | CC(C)n1c(=O)[nH]cc(F)c1=O [Compound 19, 3-isopropyl-5-fluorouracil] |  | 89 ± 6 | 0.3 ± 0.2 | 57 ± 7 | 55 ± 6 | 92 ± 8 | 87 ± 6 | 117 ± 9 | 139 ± 12 | 101 ± 9 | 111 ± 13 | 8 ± 2 | 1.0 ± 0.3
7 | O=C(O)Cc1ccccc1Nc1c(Cl)cccc1Cl [Diclofenac, diclofenac] | 20 |  |  |  |  |  |  |  |  |  |  |  | 
8 | CC(C)Cc1ccc(C(C)C(=O)O)cc1 (stereo not shown) [Ibuprofen, ibuprofen] | 20 |  |  |  |  |  |  |  |  |  |  |  | 
9 | COc1ccc2c(c1)c(CC(=O)O)c(C)n2C(=O)c1ccc(Cl)cc1 [Indometacin, indometacin, reference compound] | 20 | 195 ± 8 | 2.1 ± 0.3 | 220 ± 19 | 465 ± 43 | 780 ± 82 | 1232 ± 113 | 1021 ± 103 | 2165 ± 203 | 870 ± 91 | 1287 ± 133 |  | 
10 | CN1C(C(=O)Nc2ccccn2)=C(O)c2ccccc2S1(=O)=O [Piroxicam, piroxicam] | 20 |  |  |  |  |  |  |  |  |  |  |  | 

Reference: patent US20260083743A1, “NUCLEOSIDE DERIVATIVE FOR PREVENTING AND TREATING INFLAMMATION AND APPLICATION THEREOF” (WEST CHINA HOSPITAL OF SICHUAN UNIVERSITY, priority 2019, published 2026)
